Results on four compounds are retold here after patent US7087588B2, “Nitric oxide donors capable of reducing toxicity from drugs” (Nicox S.A., priority 1996, dated 2006).

Molecules are shown by their SMILES. Marks after values point to notes of the source that are not given here.

The nature of data set [1]: Renal functionality and gastrointestinal tolerability in hypertensive rats after diclofenac, with or without DON-NO. In kind it is in vivo, Sprague-Dawley male rats. The note with it: spontaneously hypertensive rats, diclofenac 12 mg/kg i.p. daily, 5 days; nitroglycerin 3 mg/kg s.c.; vehicle = 100.
Another data set concerns rats. Description: Tolerance to nitroglycerin after repeated subcutaneous administration in rats. In kind it is in vivo, rat. Conditions: nitroglycerin given with enalapril, repeated subcutaneous administration 1 mg/kg per day.
Data set [2] has as its system Cells of the human umbilical vein. Kind of data set: Nitric oxide generation by chemiluminescence, endothelial cells (method a). In kind it is cell-based. Conditions: incubation of 100 μmoles of NO donor, 5 minutes. Here is the method:
In particular the test relates to the generation of nitric oxide from the NO donors of the present invention, among which, for instance, nitroglycerine, nicorandil, nitro-prussiate, etc., when they are put in the presence of endothelial cells (method a), or platelets (method b). Cells of the human umbilical vein, spread on the plate, with density of 10^3 cells/plate were incubated with scalar concentrations of NO donor (1–100 μg/ml) for 5 minutes. The incubation medium (physiologic solvent, for instance Tyrode) was then analyzed to determine the capacity to generate NO, by means of: • 1) the determination of nitric oxide by chemiluminescence; • 2) the cGMP determination (cyclic GMP No. 2715 of the above mentioned Merck). […] The nitrites/nitrates present in the medium in these conditions are converted into NO which is then determined after its reaction with ozone, with consequent generation of light. As it usually occurs in the devices measuring chemiluminescence, the produced luminescence is directly proportional to the NO levels generated and can be measured by the suitable photomultiplier unit of a chemiluminescence analyser. The photomultiplier converts the incident light into electric voltage, which is then quantitatively recorded. […]

For the next data set, the system named is Washed human platelets. Kind of data set: Nitric oxide generation by chemiluminescence, platelets (method b). In kind it is cell-based. The note with it: incubation of 100 μmoles of NO donor, 5 minutes. Here is the method: Washed human platelets, prepared analogously with what described by Radomski et al, (Br. J. Pharmacol. 92, 639–1987), were utilized. Aliquots of 0.4 ml were incubated with scalar concentrations of NO donors (1–100 μg/ml) for 5 minutes. The incubation medium (f.i. Tyrode) was then analysed to determine the capacity of generating NO, by determination of nitric oxide by chemiluminiscence and cGMP, with the modalities described in the previous paragraph, for the analyses carried out on the endothelial cells. As to the determination by chemiluminescence, also in this case, on the basis of a calibration curve, prepared with scalar concentrations of nitrite, it was possible to determine quantitatively the concentration of generated NO. For instance, after incubation of 100 μmoles of nicorandil, an amount equal to 35 μmoles of NO was generated.

Another data set concerns guinea pigs. Kind of data set: Capsaicin induced bronchoconstriction in enalapril-treated guinea pigs. In kind it is in vivo, guinea pig. Conditions: enalapril 10 mg/kg and/or NO-naproxen 10 mg/kg intraduodenally, capsaicin 1 μg/kg i.v. 45 minutes later, vehicle = 100. The procedure: Capsaicin-induced bronchoconstriction in guinea pigs is an animal model related to the ability of angiotensin-converting-enzyme inhibitors to provoke cough in patients (Subissi et al, J. Cardiovasc. Pharmacol. 20/1, 139–146, 1992).
Experimental conditions were as previously described by Del Soldato et al (J. Pharmacological Methods 5, 279, 1981). Female guinea pigs weighing 300–400 g were anesthetized through intraperitoneal injection of sodiun 5,5 diethylbarbiturate (200 mg/kg) and kept under artificial respiration at constant positive pressure. Jugular right vein was incannuled for the administration of the compounds. Animals received intraduodenally enalapril (10 mg/kg), vehicle (carboxymethyl cellulose 2% by weight) and/or NO-naproxen (10 mg/kg). Forty-five minutes later, it was injected intravenously 0.1 ml capsaicin (1 μg/kg). Before and after capsaicin injection, tidal air changes were measured by means of modified Konzett apparatus connected to a polygraph amplifier.
Results were calculated as ratio of the responses obtained before and after the administration of each treatment, expressed as % of the vehicle (control) response and shown in Table 7.

Consider `O=C(O)Cc1ccccc1Nc1c(Cl)cccc1Cl` [DICLOFENAC, diclofenac], for which the “BLOOD CREATININE, percent variation with respect to the control values” in data set [1] is on record as 287* PERCENT.

Turning to `O=[N+]([O-])OCC(CO[N+](=O)[O-])O[N+](=O)[O-]` [nitroglycerin, 1,2,3 propanetriol trinitrate], in the data set with rats, the “tolerance after repeated administration” value is “did not cause any tolerance”.

With `O=C(NCCO[N+](=O)[O-])c1cccnc1` [nicorandil, N-[2-(nitrooxy)ethyl]-3-pyridine-carboxamide], the “amount of NO generated” value was “about 10 μmoles” in data set [2] and 35 µmol in the data set with Washed human platelets.

As to `CCOC(=O)[C@H](CCc1ccccc1)N[C@@H](C)C(=O)N1CCC[C@H]1C(=O)O` [enalapril], the “BRONCHOCONSTRICTION (%), % of the vehicle (control) response” value in the data set with guinea pigs is 290%.
